Assay [1] has as its system Pfeiffer cell line (diffuse large B cell lymphoma). In words: Pfeiffer cell proliferation assay. The class given is cell-based. Particulars: Pfeiffer cells, 3-4 days plus 12 hours [3H]-thymidine incorporation. The method, then:
Example C: Pfeiffer Cell Proliferation Assay
Pfeiffer cell line (diffuse large B cell lymphoma) was purchased from ATCC (Manassas, Va.) and maintained in the culture medium recommended (RPMI and 10% FBS). To measure the anti-proliferation activity of the compounds, the Pfeiffer cells were plated with the culture medium (2×10^3 cells/well/per 200 μl) into 96-well ultra-low binding plates (Corning, Corning, N.Y.), in the presence or absence of a concentration range of test compounds. After 3-4 days, [^3H]-thymidine (1 μCi/well) (PerkinElmer, Boston, Mass.) in PBS was then added to the cell culture for an additional 12 hours before the incorporated radioactivity was separated by filtration with water through GF/B filters (Packard Bioscience, Meridenj, Conn.) and measured by liquid scintillation counting with a TopCount (Packard Bioscience).
In general terms: Dividing cells build labelled thymidine or BrdU into new DNA.

For another assay, the target named is T1, PI3Kδ (p110δ/p85α) (Homo sapiens, UniProt O00329).
T1 construct: purchased Millipore (Bedford, Mass.)
In words: PI3Kδ scintillation proximity assay. Format: biochemical. The note with it: 20 μM ATP, 4 nM PI3Kδ. The procedure, abridged: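 Radiometric SPA: product captured on WGA beads after EDTA quench and counted, IC50 fitted against log inhibitor concentration. Reactions ran 210 min at room temperature with 4 nM PI3Kδ (p110δ/p85α), 20 μM each PIP2 and ATP plus 33P-ATP, pH 6.7 MOPS buffer, 0.5% DMSO final.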

Where a name gives a salt, the structure may show the parent alone.

T1 sequence (O00329 whole entry, species assumed): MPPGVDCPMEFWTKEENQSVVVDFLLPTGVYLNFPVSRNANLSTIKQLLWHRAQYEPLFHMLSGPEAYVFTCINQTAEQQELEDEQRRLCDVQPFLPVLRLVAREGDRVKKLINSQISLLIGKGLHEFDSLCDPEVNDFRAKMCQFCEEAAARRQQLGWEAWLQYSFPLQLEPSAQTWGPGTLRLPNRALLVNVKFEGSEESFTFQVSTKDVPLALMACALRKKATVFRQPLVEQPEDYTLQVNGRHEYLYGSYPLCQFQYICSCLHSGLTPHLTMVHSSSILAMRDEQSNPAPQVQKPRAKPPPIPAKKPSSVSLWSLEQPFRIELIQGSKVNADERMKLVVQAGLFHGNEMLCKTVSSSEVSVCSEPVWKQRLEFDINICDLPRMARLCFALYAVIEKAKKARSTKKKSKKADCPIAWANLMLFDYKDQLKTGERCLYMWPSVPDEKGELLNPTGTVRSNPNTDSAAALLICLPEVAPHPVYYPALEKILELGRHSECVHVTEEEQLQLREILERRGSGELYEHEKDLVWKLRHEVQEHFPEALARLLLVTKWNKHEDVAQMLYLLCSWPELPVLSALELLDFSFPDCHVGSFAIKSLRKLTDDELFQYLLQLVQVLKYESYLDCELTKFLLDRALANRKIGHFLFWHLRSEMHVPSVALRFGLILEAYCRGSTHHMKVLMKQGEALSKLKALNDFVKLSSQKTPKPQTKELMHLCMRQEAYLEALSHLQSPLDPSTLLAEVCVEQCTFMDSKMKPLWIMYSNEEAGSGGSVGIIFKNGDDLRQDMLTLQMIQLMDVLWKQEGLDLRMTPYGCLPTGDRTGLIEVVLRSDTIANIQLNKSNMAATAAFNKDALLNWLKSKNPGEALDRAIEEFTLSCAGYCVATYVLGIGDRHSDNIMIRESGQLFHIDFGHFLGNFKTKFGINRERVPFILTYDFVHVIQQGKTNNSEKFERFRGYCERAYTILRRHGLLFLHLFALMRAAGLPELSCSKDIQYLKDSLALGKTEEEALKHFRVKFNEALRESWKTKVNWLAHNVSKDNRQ
T1 sequence (P27986 whole entry partner, species assumed): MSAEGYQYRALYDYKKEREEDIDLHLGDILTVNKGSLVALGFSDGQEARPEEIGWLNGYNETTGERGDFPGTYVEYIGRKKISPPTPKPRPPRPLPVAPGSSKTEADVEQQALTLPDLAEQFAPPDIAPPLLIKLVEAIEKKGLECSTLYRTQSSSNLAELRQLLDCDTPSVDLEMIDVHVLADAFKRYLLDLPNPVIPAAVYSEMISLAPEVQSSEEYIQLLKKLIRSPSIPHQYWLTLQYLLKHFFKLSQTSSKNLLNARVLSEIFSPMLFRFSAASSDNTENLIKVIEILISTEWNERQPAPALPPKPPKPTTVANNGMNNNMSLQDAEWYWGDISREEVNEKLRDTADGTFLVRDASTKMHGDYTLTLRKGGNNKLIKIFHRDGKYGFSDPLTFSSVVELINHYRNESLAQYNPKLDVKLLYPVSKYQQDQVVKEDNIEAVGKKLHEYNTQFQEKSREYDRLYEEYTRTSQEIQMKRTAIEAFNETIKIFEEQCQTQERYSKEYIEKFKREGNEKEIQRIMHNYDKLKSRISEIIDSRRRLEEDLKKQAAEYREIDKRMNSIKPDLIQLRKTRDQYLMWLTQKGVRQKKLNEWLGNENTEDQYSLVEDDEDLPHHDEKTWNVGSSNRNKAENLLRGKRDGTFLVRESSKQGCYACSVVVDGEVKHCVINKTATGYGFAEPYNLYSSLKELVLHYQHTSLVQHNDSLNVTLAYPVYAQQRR

The term IC50 denotes the concentration that gives 50% inhibition. `Cc1c(Cl)cc(C(C)Nc2ncnc3[nH]cnc23)c(-c2cccc(F)c2)c1C#N` (stereo not shown) [Example 1, 4-Chloro-3′-fluoro-3-methyl-6-[1-(9H-purin-6-ylamino)ethyl]biphenyl-2-carbonitrile]: in assay [1] (Homo sapiens, Pfeiffer), the IC50 fell in the range of 0.5 to 1 µM.

Turning to `Cc1c(Cl)cc(C(C)Nc2ncnc3[nH]cnc23)c(-c2cccc(F)c2)c1C(N)=O` (stereo not shown) [Example 2, 4-Chloro-3′-fluoro-3-methyl-6-[1-(9H-purin-6-ylamino)ethyl]biphenyl-2-carboxamide], the IC50 was under 0.05 µM at PI3Kδ (p110δ/p85α) and under 0.1 µM in assay [1] (Homo sapiens, Pfeiffer). Regarding `Cc1c(Cl)cc(C(C)Nc2ncnc3[nH]cnc23)c(-c2cccc(F)c2)c1[N+](=O)[O-]` (stereo not shown) [Example 3, N-[1-(4-chloro-3′-fluoro-5-methyl-6-nitrobiphenyl-2-yl)ethyl]-9H-purin-6-amine], the IC50 was 0.1 to 0.25 µM against PI3Kδ (p110δ/p85α) and over 1 µM in assay [1] (Homo sapiens, Pfeiffer). Consider `Cc1c(Cl)cc(C(C)Nc2ncnc3[nH]cnc23)c(-c2cccc(F)c2)c1N1CCCC1=O` (stereo not shown) [Example 5, 1-{4-Chloro-3′-fluoro-3-methyl-6-[1-(9H-purin-6-ylamino)ethyl]biphenyl-2-yl}pyrrolidin-2-one], for which the IC50 on PI3Kδ (p110δ/p85α) was under 0.05 µM; in assay [1] (Homo sapiens, Pfeiffer) it was under 0.1 µM. Consider `Cc1c(Cl)cc(C(C)Nc2ncnc3[nH]cnc23)c(-c2cc(F)cc(F)c2)c1N1CCCC1=O` (stereo not shown) [Example 6, 1-{4-Chloro-3′,5′-difluoro-3-methyl-6-[1-(9H-purin-6-ylamino)ethyl]biphenyl-2-yl}pyrrolidin-2-one trifluoroacetate], for which the IC50 against PI3Kδ (p110δ/p85α) is under 0.05 µM; in assay [1] (Homo sapiens, Pfeiffer) it was under 0.1 µM.

As to `Cc1c(Cl)cc(C(C)Nc2ncnc3[nH]cnc23)c(-c2cccc(F)c2)c1N1CCOC1=O` (stereo not shown) [Example 7, 3-{4-Chloro-3′-fluoro-3-methyl-6-[1-(9H-purin-6-ylamino)ethyl]biphenyl-2-yl}-1,3-oxazolidin-2-one], the IC50 against PI3Kδ (p110δ/p85α) is under 0.05 µM; in assay [1] (Homo sapiens, Pfeiffer), under 0.1 µM. With `Cc1c(Cl)cc(C(C)Nc2ncnc3[nH]cnc23)c(-c2cccc(F)c2)c1-c1nnn[nH]1` (stereo not shown) [Example 8, N-{1-[4-chloro-3′-fluoro-5-methyl-6-(1H-tetrazol-5-yl)biphenyl-2-yl]ethyl}-9H-purin-6-amine], the IC50 at PI3Kδ (p110δ/p85α) was under 0.05 µM; in assay [1] (Homo sapiens, Pfeiffer), over 1 µM. As for `CC(=O)Nc1c(C)c(Cl)cc(C(C)Nc2ncnc3[nH]cnc23)c1-c1cccc(F)c1` (stereo not shown) [Example 9, N-{4-chloro-3′-fluoro-3-methyl-6-[1-(9H-purin-6-ylamino)ethyl]biphenyl-2-yl}acetamide], the IC50 against PI3Kδ (p110δ/p85α) lay within 0.05 to 0.1 µM; in assay [1] (Homo sapiens, Pfeiffer), 0.1 to 0.5 µM. As for `COC(=O)N(C(=O)OC)c1c(C)c(Cl)cc(C(C)Nc2ncnc3[nH]cnc23)c1-c1cccc(F)c1` (stereo not shown) [Example 10, Dimethyl {4-chloro-3′-fluoro-3-methyl-6-[1-(9H-purin-6-ylamino)ethyl]biphenyl-2-yl}imidodicarbonate], the IC50 is under 0.05 µM against PI3Kδ (p110δ/p85α) and 0.1 to 0.5 µM in assay [1] (Homo sapiens, Pfeiffer). `Cc1c(Cl)cc(C(C)Nc2ncnc3[nH]cnc23)c(-c2cccc(F)c2)c1-n1cnnc1` (stereo not shown) [Example 11, N-{1-[4-chloro-3′-fluoro-5-methyl-6-(4H-1,2,4-triazol-4-yl)biphenyl-2-yl]ethyl}-9H-purin-6-amine]: the IC50 against PI3Kδ (p110δ/p85α) was under 0.05 µM; in assay [1] (Homo sapiens, Pfeiffer), under 0.1 µM.

For the compound `Cc1c(Cl)cc(C(C)Nc2ncnc3[nH]cnc23)c(-c2cccc(F)c2)c1N(S(C)(=O)=O)S(C)(=O)=O` (stereo not shown) [Example 12, N-{4-chloro-3′-fluoro-3-methyl-6-[1-(9H-purin-6-ylamino)ethyl]biphenyl-2-yl}-N-(methylsulfonyl)methanesulfonamide], the IC50 was under 0.05 µM on PI3Kδ (p110δ/p85α) and under 0.1 µM in assay [1] (Homo sapiens, Pfeiffer).

Take `Cc1c(Cl)cc(C(C)Nc2ncnc3[nH]cnc23)c(-c2ccccc2)c1-c1cc(F)nc(F)c1` (stereo not shown) [Example 13, N-{1-[4-chloro-6-(2,6-difluoropyridin-4-yl)-5-methylbiphenyl-2-yl]ethyl}-9H-purin-6-amine]: the half-maximal inhibitory concentration (IC50) on PI3Kδ (p110δ/p85α) is under 0.05 µM; in assay [1] (Homo sapiens, Pfeiffer), under 0.1 µM. Regarding `Cc1c(Cl)cc(C(C)Nc2ncnc3[nH]cnc23)c(-c2ccccc2)c1-c1ccc(S(C)(=O)=O)cc1` (stereo not shown) [Example 14, N-{1-[5′-chloro-6′-methyl-4-(methylsulfonyl)-1,1′:2′,1″-terphenyl-3′-yl]ethyl}-9H-purin-6-amine], the IC50 on PI3Kδ (p110δ/p85α) is under 0.05 µM; in assay [1] (Homo sapiens, Pfeiffer), under 0.1 µM. The corresponding values for `Cc1c(Cl)cc(C(C)Nc2ncnc3[nH]cnc23)c(-c2ccccc2)c1-c1cnc(N(C)C)nc1` (stereo not shown) [Example 15, N-(1-{4-chloro-6-[2-(dimethylamino)pyrimidin-5-yl]-5-methylbiphenyl-2-yl}ethyl)-9H-purin-6-amine] are under 0.05 µM and under 0.1 µM. On to `COc1c(C(C)Nc2ncnc3[nH]cnc23)cc(Cl)c(C)c1-c1ccc(S(C)(=O)=O)cc1` (stereo not shown) [Example 32, N-{1-[5-chloro-2-methoxy-6-methyl-4′-(methylsulfonyl)biphenyl-3-yl]ethyl}-9H-purin-6-amine], for which the IC50 in assay [1] (Homo sapiens, Pfeiffer) is under 0.1 µM. For `COc1c(C(C)Nc2ncnc3[nH]cnc23)cc(Cl)c(C)c1-c1cnc(N)nc1` (stereo not shown) [Example 33, N-{1-[3-(2-aminopyrimidin-5-yl)-5-chloro-2-methoxy-4-methylphenyl]ethyl}-9H-purin-6-amine], the half-maximal inhibitory concentration (IC50) in assay [1] (Homo sapiens, Pfeiffer) was under 0.1 µM.

On to `COc1c(C(C)Nc2ncnc3[nH]cnc23)cc(Cl)c(C)c1-c1cc(F)ccc1F` (stereo not shown) [Example 50, N-[1-(5-chloro-2′,5′-difluoro-2-methoxy-6-methylbiphenyl-3-yl)ethyl]-9H-purin-6-amine], for which the half-maximal inhibitory concentration (IC50) in assay [1] (Homo sapiens, Pfeiffer) was over 1 µM; in assay [1], 0.5 to 1 µM. With `COc1c(C(C)Nc2ncnc3[nH]cnc23)cc(Cl)c(C)c1-c1cncc(C#N)c1` (stereo not shown) [Example 53, 5-{3-chloro-6-methoxy-2-methyl-5-[1-(9H-purin-6-ylamino)ethyl]phenyl}nicotinonitrile], the IC50 in assay [1] (Homo sapiens, Pfeiffer) is under 0.1 µM. In the case of `Cc1c(Cl)cc(C(C)Nc2ncnc3[nH]cnc23)c(-c2cccc(F)c2)c1-c1cnn(C)c1` (stereo not shown) [Example 73, N-{1-[4-chloro-3′-fluoro-5-methyl-6-(1-methyl-1H-pyrazol-4-yl)biphenyl-2-yl]ethyl}-9H-purin-6-amine], the IC50 in assay [1] (Homo sapiens, Pfeiffer) was under 0.1 µM.

Take `COc1c(C(C)Nc2ncnc3[nH]cnc23)cc(Cl)c(C)c1-c1cc(C(F)(F)F)ccc1F` (stereo not shown) [Example 86, N-{1-[5-chloro-2′-fluoro-2-methoxy-6-methyl-5′-(trifluoromethyl)biphenyl-3-yl]ethyl]-9H-purin-6-ami]: the IC50 in assay [1] (Homo sapiens, Pfeiffer) was over 1 µM. In the case of `COc1c(C(C)Nc2ncnc3[nH]cnc23)cc(Cl)c(C)c1C1CN(C(C)C)C(=O)O1` (stereo not shown) [Example 189, 5-{3-Chloro-6-methoxy-2-methyl-5-[1-(9H-purin-6-ylamino)ethyl]phenyl}-3-isopropyl-1,3-oxazolidin-2-one trifluoroacetate], the IC50 at PI3Kδ (p110δ/p85α) is under 0.05 µM. Regarding `COc1c(C(C)Nc2ncnc3[nH]cnc23)cc(Cl)c(C)c1C(O)CN1CCOCC1` (stereo not shown) [Example 190, 1-{3-Chloro-6-methoxy-2-methyl-5-[1-(9H-purin-6-ylamino)ethyl]phenyl}-2-morpholin-4-ylethanol bis(trifluoroacetate)], on PI3Kδ (p110δ/p85α), the IC50 is under 0.05 µM.

Consider `COc1c(C(C)Nc2ncnc3[nH]cnc23)cc(Cl)c(C)c1C1CN(C(C)C)C(=O)CO1` (stereo not shown) [Example 191, 6-{3-Chloro-6-methoxy-2-methyl-5-[1-(9H-purin-6-ylamino)ethyl]phenyl}-4-isopropylmorpholin-3-one trifluoroacetate], for which, on PI3Kδ (p110δ/p85α), the IC50 is under 0.05 µM. Compound `COc1c(C(C)Nc2ncnc3[nH]cnc23)cc(Cl)c(Cl)c1C1CN(C(C)C(F)(F)F)C1` (stereo not shown) [Example 198, N-(1-{4,5-Dichloro-2-methoxy-3-[1-(2,2,2-trifluoro-1-methylethyl)azetidin-3-yl]phenyl}ethyl)-9H-purin-6-amine bistrifluoroacetate] had an IC50 on PI3Kδ (p110δ/p85α) of under 0.05 µM. Same read-out and setting: the figure for `COc1c(C(C)Nc2ncnc3[nH]cnc23)cc(Cl)c(Cl)c1C1CN(CC#N)C1` (stereo not shown) [Example 206, (3-{2,3-Dichloro-6-methoxy-5-[1-(9H-purin-6-ylamino)ethyl]phenyl}azetidin-1-yl)acetonitrile bis(trifluoroacetate)] is under 0.05 µM; for `COc1c(C(C)Nc2ncnc3[nH]cnc23)cc(Cl)c(Cl)c1C1CN(CC(F)(F)F)C1` (stereo not shown) [Example 207, N-(1-{4,5-Dichloro-2-methoxy-3-[1-(2,2,2-trifluoroethyl)azetidin-3-yl]phenyl}ethyl)-9H-purin-6-amine bis(trifluoroacetate)] it is under 0.05 µM; for `COc1c(C(C)Nc2ncnc3[nH]cnc23)cc(Cl)c(Cl)c1C1CN(C2CCC2)C1` (stereo not shown) [Example 209, N-{1-[4,5-Dichloro-3-(1-cyclobutylazetidin-3-yl)-2-methoxyphenyl]ethyl}-9H-purin-6-amine bistrifluoroacetate] it is under 0.05 µM. Regarding `COc1c(C(C)Nc2ncnc3[nH]cnc23)cc(Cl)c(Cl)c1C1CN(CC(F)F)C1` (stereo not shown) [Example 210, N-(1-{4,5-Dichloro-3-[1-(2,2-difluoroethyl)azetidin-3-yl]-2-methoxyphenyl}ethyl)-9H-purin-6-amine bis(trifluoroacetate)], the IC50 on PI3Kδ (p110δ/p85α) was under 0.05 µM. Compound `CCOc1c(C(C)Nc2ncnc3[nH]cnc23)cc(C#N)c(F)c1-c1ccc(C(=O)N(C)C)nc1` (stereo not shown) [Example 211, 5-{3-Cyano-6-ethoxy-2-fluoro-5-[1-(9H-purin-6-ylamino)ethyl]phenyl}-N,N-dimethylpyridine-2-carboxamide bis(trifluoroacetate)] returned an IC50 at PI3Kδ (p110δ/p85α) of under 0.05 µM.

Values taken from patent US9815839B2, “N-(1-(substituted-phenyl)ethyl)-9H-purin-6-amines as PI3K inhibitors” (Incyte Corporation, priority 2010, dated 2017).
